Source: article PMC9365693 (Nature, 2022)
“And” between values parts separate entries of the source, which are not always exact repeats. Equal values may be shown once. “Also recorded” adds a separate entry of the source. Read-outs that look alike come from different tables or passages of the source.

What was measured:
[1] = HS-AFM of teixobactin–lipid II fibrils on supported lipid bilayer
Method: (§1) The HS-AFM images were acquired in amplitude modulation tapping mode in liquid using a high-speed atomic force microscope (RIBM). Short cantilevers (approximately 7 μm) with a nominal spring constant of 0.15 N m^−1 were used (USC-F1.2-k0.15, NanoWorld). A minimal imaging force was applied by using a small set-point amplitude of 0.8 nm (for a 1 nm free amplitude). […] The lipid bilayer was obtained by incubating LUVs containing DOPC and lipid II (prepared as mentioned above) on top of a freshly cleaved mica for 20–30 min. […] Imaging was started on the lipid bilayer surface in recording buffer. […] Images were primarily processed using built-in scripts (RIBM) in Igor Pro (Wavemetrics) and analysed using ImageJ software. The images or videos were corrected minimally for tilt, drift and contrast. […] Image acquisition rate varies from 0.5 frames per second to 2 frames per seconds (see Fig. 2, Extended Data Figs. 5, 6, or legends of Supplementary Videos 1 and 2), and the line rate varies from 150 lines per second to 400 lines per second. […] Stated errors are standard deviation.

[2] = for interaction with lipid II moieties (in words): ssNMR, DOPC liposomes with 4 mol% lysine-lipid II, pH 7.2
Method: Multi-lamellar vesicles of DOPC doped with 4 mol% lysine-lipid II in buffer (40 mM Na2PO4 and 25 mM NaCl, pH 7.2) were collected by centrifugation (60,000g) and loaded into ssNMR rotors. […] For 1.3-mm rotors, samples contained 200 nmol of antibiotic for unlabelled lipid II.
^1H-detected ssNMR experiments were performed at 60 kHz magic angle spinning (MAS) using magnetic fields of 700 and 950 MHz (^1H frequency). […] T1rho trajectories were fit to single exponentials. 2D CC experiments were acquired with PARISxy[33],[53] recoupling (m = 1) at 950 MHz magnetic field and 18 kHz MAS. A 2D CαN experiment was acquired at 700 MHz, 12 kHz MAS and 5 ms N to C cross-polarization transfer time. […] The scalar TOBSY[35] experiment was acquired at 700 MHz using 8 kHz MAS with 6 ms CC mixing time. The mobility edited H(H)C experiment[25] was measured at 700 MHz with 16.5 kHz MAS at a temperature of 300 K using a T2 relaxation filter of 2.5 ms. 1D MAS ^31P experiments were acquired at 500 MHz magnetic field and 12 kHz MAS. 2D HP experiments were acquired at 800 MHz and 60 kHz MAS using 1 and 2 ms ^1H to ^31P cross-polarization contact time. Static ^31P ssNMR experiments were acquired at 500 MHz magnetic field without sample spinning.

[3] = HS-AFM control experiments (membrane height; bilayers without lipid II); parameters: membrane height: unit not given here; conditions: for membrane height: source data Ext. Data Fig. 6, DOPC + 1% lipid II, after 30 mins incubation with 800 nM
Method: as §1
Extended Data Fig. 6 HS-AFM control experiments. […] Source data

[4] = Intermolecular teixobactin–teixobactin ssNMR contacts (2D 13C13C); conditions: 2D 13C13C ssNMR, 600 ms transfer, lipid II-bound
From the text: (§2) T1rho trajectories were fit to single exponentials.
Solid-state NMR ^13C-^13C PARISxy spectra of the ^13C,^15N-teixobactin – Lipid II complex in membranes show several cross-peaks (in red) that cannot be intramolecular contacts because this would require magnetization transfer over more than 10 Å. Rather, these cross-peaks correspond to intermolecular contacts between different teixobactin molecules and agree with the formation of antiparallel β-sheets.

[5] = Static 31P ssNMR: membrane perturbation; conditions: lipid II-doped DOPC large unilamellar vesicles
[6] = Confocal microscopy of GUVs doped with Atto 550-labelled lipid II; conditions: DOPC GUVs with 0.1 mol% Atto 550-lipid II, 1 μM teixobactin, 3 h; biological triplicates
Method: We used a self-assembled GUV cell, aligned with two titanium electrodes in a closed Teflon chamber (volume = 500 μl). Of 0.5 mM DOPC doped with Atto 550-labelled lipid II (0.1 mol%), 1 μl was brushed on the titanium electrodes. The GUV cell was dried under vacuum. Next, the chamber was filled with 350 μl 0.1 M sucrose solution, the electrodes dipped in and connected to a power supply of a sine wave (2.5 V; 10 Hz; 90 min). Each microscopy slide (m-slide 8 well, Ibidi) was incubated with 350 μl BSA solution (1 mg ml^−1) for 1 h. To detach the GUVs, the power supply was changed to square wave (2 V; 2 Hz; 15 min). The slides were washed once with water and 0.1 M glucose solution. The slides were immersed in 300 μl of 0.1 M glucose solution to which 50 μl of GUVs was added. […] GUVs were imaged using Zeiss LSM 880 with ×63/1.2 NA glycerol and ×100/1.2 NA oil objective lenses. The Atto 550 label appeared red upon excitation by the 560-nm laser. The brightfield was used for detection and location of the GUVs and to observe their shape. Zeiss Zen Black software was used for the analysis of the images.

Staphylococcus simulans = test: Sytox green membrane damage assay, S. simulans; assay type: cell-based
Method: The bacterial cultures were grown overnight at 30 °C in TSB media for S. simulans and at 37 °C in LB medium for Bacillus subtilis. Secondary cultures were grown for 3 h until OD600 = 0.5 was reached. The bacterial cells were then centrifuged at 1,500g for 10 min at 4 °C and washed twice with 10 ml of buffer (10 mM Tris, 100 mM NaCl, 1 mM MgCl2 and 0.5% glucose, pH 7.2). The bacterial cells were resuspended to an OD600 = 10 in the buffer and used for the experiment. […] For the assay, 1 μl of the bacterial suspension was added to 1 ml of buffer. For the ion leakage assays, 1 μl of the DiSC-2 probe from a 1 mM stock was added to the cuvette and the fluorescence was measured between a wavelength of 650 nm and 670 nm (bandwidth of […]) for 2 min before the addition of the antibiotic and 6 min after. For the Sytox green leakage assays, 1 μl of the Sytox green probe from a 0.25 mM stock was added to the cuvette and the fluorescence was measured between a wavelength of 500 nm and 520 nm (bandwidth of […]) for 2 min before the addition of the antibiotic and 6 min after. All experiments were performed in triplicates.

[7] = Pyrene-labelled lipid II excimer fluorescence (oligomerization); conditions: DOPC LUVs with 0.5 mol% pyrene-lipid II, 10 mM Tris-Cl 100 mM NaCl pH 8.0, 20 °C
[8] = 15N T1rho ssNMR relaxation of lipid II-bound teixobactin; conditions: 60 kHz MAS, in membranes
From the text: as §2

In the case of teixobactin, the “depth of fibrillar sheets below the membrane surface (membrane thinning)” value ([1]; 50 min after 800 nM teixobactin) is reported as “approximately 0.5 nm”, the “height of fibrils on the membrane surface” value ([1]; DOPC bilayer with lipid II, 10 mM Tris-Cl 100 mM NaCl pH 8.0, error is standard deviation) is reported as 0.8 ± 0.1 nm and the “peak-to-peak distance between fibrils in sheets” value ([1]; after the fibrils have descended into the surface) is reported as ~ 8 nm. The “formation of fibrils (in words)” value ([1]; lipid II-doped bilayer) was “Fibrils were solely observed in the presence of both teixobactin and lipid II; also recorded: fibrils solely form in the presence of both teixobactin and Lipid II”, the “number of interfacial End10–MurNAc ssNMR contacts” value ([2]; 2D 13C13C PARISxy, 13C,15N-teixobactin and 13C,15N-lipid II in DOPC liposomes) was 11 and the “interaction with lipid II moieties (in words)” value ([2]; listed as Teixobactin) was “did not bind to the pentapeptide of lipid II”. For the same substance, the “interaction with lipid II moieties (in words)” value ([2]; listed as natural teixobactin) was “tight and specific interactions”, the “HS-AFM control result (in words)” value ([3]; membrane height at positions without fibrils, 30 min after teixobactin) was “membrane height at positions without fibrils remains unaltered” and the membrane height ([3]; individual measurement, one line each) was 4.81 and 4.99 and 5.22 and 4.65 and 4.79 and 5.05 and 5.1 and 4.77 and 4.67 and 5.01 and 4.5 and 4.97 and 4.95 and 5 and 4.87 and 4.68 and 4.96 and 4.63 and 4.88 and 4.89 and 4.9 and 5.12 and 4.8. The membrane height ([3]; mean) was 4.873, the “antiparallel β-sheet formation (in words)” value [4] was “strongly supports that natural teixobactin also forms antiparallel β-sheets” and the “membrane perturbation by static 31P ssNMR (in words)” value [5] was “incubation with teixobactin markedly changed the signal”. The “GUV oligomerization and membrane perturbation (in words)” value [6] was “formation of micron-sized teixobactin–lipid II oligomers; also recorded: pronounced concave membrane perturbations at the oligomerization sites”, the “membrane damage, Sytox green (in words)” value (Staphylococcus simulans; Sytox green, Gram-positive bacteria, 20 °C, pH 7.2, 2 min before and 6 min after antibiotic, triplicates) was “Although less pronounced than for nisin, teixobactin also showed clear effects with Sytox green” and the “time of membrane defects in intact bacteria” value (Staphylococcus simulans; intact bacteria, DiSC / Sytox green assays) was no more than 10 min. For the same substance, the “oligomerization by pyrene-tagged lipid II (in words)” value [7] was “with the increase in teixobactin concentration there is a relative decrease in the monomer signal followed by a respective increase in the excimer signal; also recorded: oligomers form immediately after the addition of teixobactin” and the “overall dynamics in the complex (in words)” value [8] was “The overall dynamics of the molecule is very slow”.
